A word on the inhibition: it is how much of the control response was suppressed. One may read the IC50 as the concentration at which inhibition is half-maximal.

14 compounds from ChEMBL document CHEMBL4699554, “Biological Evaluation of Selected Flavonoids as Inhibitors of MNKs Targeting Acute Myeloid Leukemia” (J Nat Prod, 2020) can be followed below.

Calls of active or inactive are those of the source. The rule behind the calls is not given here.

Test [1] concerns the target T1, MAP kinase-interacting serine/threonine-protein kinase 1/2 (Homo sapiens) (UniProt Q9HBH9+Q9BUB5). Put plainly: Inhibition of MNK1/MNK2 in human MV4-11 cells assessed as reduction in eIF4E phosphorylation reduction in eIF4E phosphorylation at 10 uM after 24 to 48 hrs by Western blot analysis. The format is cell-based. The conditions noted are these: time hrs 24-48. Background: In western blotting, separated proteins are transferred to a membrane and probed.

Test [2] concerns MV4-11. Description: Induction of cell cycle arrest in human MV4-11 cells assessed as increase in accumulation at sub-G1 phase at 30 uM after 72 hrs by propidium iodide staining based flow cytometric analysis relative to control. The format is functional.
In test [3] the test system is MOLM-13. Put plainly: Induction of cell death in human MOLM-13 cells assessed as increase in accumulation at sub-G1 phase after 72 hrs by propidium iodide staining based flow cytometric analysis. The conditions noted are these: dose microM 1-30, time 72.0 hrs. Type of test: functional. On the technique in general: In flow cytometry, cells or beads pass a laser one at a time.

Test [4] relates to MV4-11. Put plainly: Cytotoxicity against human MV4-11 cells assessed as reduction in cell viability after 72 hrs by MTT assay. Type of test: functional, cell-based. As to conditions: MV4-11, 72 h. Background: Tetrazolium dyes change colour on reduction, which living cells bring about.
Test [5] relates to MV4-11. Description: Induction of cell death in human MV4-11 cells assessed as increase in accumulation at sub-G1 phase after 72 hrs by propidium iodide staining based flow cytometric analysis. Type of test: functional. The conditions noted are these: dose microM 1-30, time 72.0 hrs.
Test [6] has as its target T1, MAP kinase-interacting serine/threonine-protein kinase 1/2 (Homo sapiens). Description: Inhibition of MNK1/MNK2 in human MV4-11 cells assessed as reduction in eIF4E phosphorylation reduction in eIF4E phosphorylation after 24 to 48 hrs by Western blot analysis. The format is cell-based. As to conditions: dose microM 1-30, time hrs 24-48.
The subject of test [7] is MV4-11. Description: Induction of apoptosis in human MV4-11 cells assessed as increase in cleaved PARP level after 72 hrs by Western blot analysis. The conditions noted are these: dose microM 1-30, time 72.0 hrs. Type of test: functional, cell-based.
Test [8] relates to MOLM-13. Put plainly: Induction of cell cycle arrest in human MOLM-13 cells assessed as increase in accumulation at sub-G1 phase at 30 uM after 72 hrs by propidium iodide staining based flow cytometric analysis relative to control. The format is functional.
Test [9] addresses T2, MAP kinase-interacting serine/threonine-protein kinase 1 (Homo sapiens, UniProt Q9BUB5). Put plainly: Inhibition of GST-tagged recombinant human full length MNK1 expressed in insect cells.
Target sequence in this assay (Q9BUB5 whole entry): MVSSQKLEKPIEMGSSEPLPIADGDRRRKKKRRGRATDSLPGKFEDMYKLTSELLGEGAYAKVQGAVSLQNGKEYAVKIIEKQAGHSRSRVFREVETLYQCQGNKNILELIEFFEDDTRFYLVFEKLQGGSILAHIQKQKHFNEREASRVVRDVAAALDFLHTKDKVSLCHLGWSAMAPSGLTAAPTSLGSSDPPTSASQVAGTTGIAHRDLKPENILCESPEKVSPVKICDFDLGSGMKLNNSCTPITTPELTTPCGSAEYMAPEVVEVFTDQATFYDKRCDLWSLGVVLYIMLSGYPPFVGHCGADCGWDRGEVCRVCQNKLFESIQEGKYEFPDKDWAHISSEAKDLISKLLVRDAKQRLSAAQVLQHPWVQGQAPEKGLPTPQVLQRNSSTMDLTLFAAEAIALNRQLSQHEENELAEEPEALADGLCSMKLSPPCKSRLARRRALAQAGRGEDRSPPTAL
Test [10] has as its system MOLM-13. Description: Induction of cell cycle arrest in human MOLM-13 cells assessed as increase in accumulation at sub-G1 phase at 1 to 30 uM after 72 hrs by propidium iodide staining based flow cytometric analysis. The format is functional. The conditions noted are these: dose microM 1-30, time 72.0 hrs.
For test [11], the target named is T1, MAP kinase-interacting serine/threonine-protein kinase 1/2 (Homo sapiens). Put plainly: Inhibition of MNK1/MNK2 in human MOLM-13 cells assessed as reduction in eIF4E phosphorylation reduction in eIF4E phosphorylation at 10 uM after 24 to 48 hrs by Western blot analysis. As to conditions: time hrs 24-48. The format is cell-based.
For test [12], the system named is MV4-11. Put plainly: Induction of cell cycle arrest in human MV4-11 cells assessed as increase in accumulation at sub-G1 phase at 1 to 30 uM after 72 hrs by propidium iodide staining based flow cytometric analysis. Type of test: functional. As to conditions: dose microM 1-30, time 72.0 hrs.
The target in test [13] is T3, MAP kinase-interacting serine/threonine-protein kinase 2 (Homo sapiens, UniProt Q9HBH9). Description: Inhibition of N-terminal GST-tagged recombinant human full length MNK2 expressed in baculovirus expression system at 10 uM incubated for 1 hr by Kinase Tracer 236 based LanthaScreen Eu kinase binding assay relative to control.
Target sequence in this assay (Q9HBH9 whole entry, looked up): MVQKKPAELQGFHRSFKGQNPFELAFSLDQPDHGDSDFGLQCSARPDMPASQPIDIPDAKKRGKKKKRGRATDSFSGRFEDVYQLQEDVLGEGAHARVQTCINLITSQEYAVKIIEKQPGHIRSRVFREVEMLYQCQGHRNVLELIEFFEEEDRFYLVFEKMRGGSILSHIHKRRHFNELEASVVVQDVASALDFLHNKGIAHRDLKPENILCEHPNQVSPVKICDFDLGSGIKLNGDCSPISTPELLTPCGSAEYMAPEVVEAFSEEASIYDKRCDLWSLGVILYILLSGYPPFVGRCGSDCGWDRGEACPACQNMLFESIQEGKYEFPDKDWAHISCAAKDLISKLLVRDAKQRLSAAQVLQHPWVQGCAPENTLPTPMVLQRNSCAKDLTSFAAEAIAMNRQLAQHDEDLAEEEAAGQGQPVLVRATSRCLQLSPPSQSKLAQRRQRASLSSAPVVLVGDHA
Test [14] relates to MV4-11. Put plainly: Induction of apoptosis in human MV4-11 cells assessed as increase in cleaved caspace-3 level after 72 hrs by Western blot analysis. The format is functional, cell-based. As to conditions: dose microM 1-30, time 72.0 hrs.
Test [15] relates to MOLM-13. Put plainly: Cytotoxicity against human MOLM-13 cells assessed as reduction in cell viability after 72 hrs by MTT assay. The format is functional, cell-based. As to conditions: MOLM-13, 72 h.
The target in test [16] is T3, MAP kinase-interacting serine/threonine-protein kinase 2. Put plainly: Inhibition of N-terminal GST-tagged recombinant human full length MNK2 expressed in baculovirus expression system incubated for 1 hr by Kinase Tracer 236 based LanthaScreen Eu kinase binding assay relative to control.
Target sequence in this assay (Q9HBH9 whole entry): as the sequence (Q9HBH9 whole entry, looked up) above
For test [17], the target named is T2, MAP kinase-interacting serine/threonine-protein kinase 1. Put plainly: Inhibition of GST-tagged recombinant human full length MNK1 expressed in insect cells at 10 uM relative to control.
Target sequence in this assay (Q9BUB5 whole entry, looked up): as the sequence (Q9BUB5 whole entry) above
The test system of test [18] is MOLM-13. Description: Induction of apoptosis in human MOLM-13 cells assessed as increase in cleaved caspace-3 level after 72 hrs by Western blot analysis. The format is functional, cell-based. The conditions noted are these: dose microM 1-30, time 72.0 hrs.
Test [19] deals with MOLM-13. Put plainly: Induction of apoptosis in human MOLM-13 cells assessed as increase in cleaved PARP level after 72 hrs by Western blot analysis. As to conditions: dose microM 1-30, time 72.0 hrs. Type of test: functional, cell-based.
In test [20] the target is T1, MAP kinase-interacting serine/threonine-protein kinase 1/2 (Homo sapiens). Put plainly: Inhibition of MNK1/MNK2 in human MOLM-13 cells assessed as reduction in eIF4E phosphorylation reduction in eIF4E phosphorylation after 24 to 48 hrs by Western blot analysis. Type of test: cell-based. As to conditions: dose microM 1-30, time hrs 24-48.
The test system of test [21] is MV4-11. Put plainly: Induction of cell cycle arrest in human MV4-11 cells assessed as increase in accumulation at sub-G1 phase at 3 to 30 uM after 72 hrs by propidium iodide staining based flow cytometric analysis. Type of test: functional. The conditions noted are these: dose microM 3-30, time 72.0 hrs.
Test [22] deals with T1, MAP kinase-interacting serine/threonine-protein kinase 1/2 (Homo sapiens). Description: Inhibition of MNK1/MNK2 in human MOLM-13 cells assessed as reduction in eIF4E phosphorylation reduction in eIF4E phosphorylation at 30 uM after 24 to 48 hrs by Western blot analysis. Type of test: cell-based. The conditions noted are these: time hrs 24-48.
Test [23] shares this target. Put plainly: Inhibition of MNK1/MNK2 in human MV4-11 cells assessed as reduction in eIF4E phosphorylation reduction in eIF4E phosphorylation at 30 uM after 24 to 48 hrs by Western blot analysis. The conditions noted are these: time hrs 24-48. The format is cell-based.
Test [24] concerns MOLM-13. Put plainly: Induction of cell cycle arrest in human MOLM-13 cells assessed as increase in accumulation at sub-G1 phase at 3 to 30 uM after 72 hrs by propidium iodide staining based flow cytometric analysis. Type of test: functional. The conditions noted are these: dose microM 3-30, time 72.0 hrs.

As to `O=c1cc(-c2ccc(O)c(O)c2)oc2cc(O)cc(O)c12` [LUTEOLIN], the inhibition in test [1] was 100%; in test [6], “Dose-dependent effect”; in test [11], 100%; in test [13] it was more than 70%; in [17] it was more than 70%; in [20], “Dose-dependent effect”. The Activity was more than 80% in [2]; “Dose-dependent effect” in test [7]; more than 80% in test [8]; “Dose-dependent effect” in [14]; “Dose-dependent effect” in test [18]; “Dose-dependent effect” in [19]. Further, the result in [3], in test [5], in test [10] and in test [12] was Active. For the same compound, the IC50 in test [4] was 3.1 µM; in test [9] it was 179 nM; in test [15], 4.5 µM; in test [16], 579 nM.
On to `O=C(/C=C/c1cccc(O)c1)c1ccccc1O`, for which the inhibition in test [13] is more than 50%.
As to `COc1ccc(C(=O)/C=C/c2ccc(O)c(Br)c2)cc1`, the inhibition in test [13] was more than 70%. Besides, the IC50 in [16] was 4670 nM.
For `COc1cc(O)c(C(=O)/C=C/c2ccccc2)c(OC)c1`, the inhibition in test [13] was more than 50%.
With `COc1cc(O)c(C(=O)/C=C/c2ccc(C(=O)O)cc2)c(OC)c1`, the inhibition in [13] was more than 70%. In addition, the IC50 in [16] came to 3700 nM.
For `O=c1cc(-c2ccc(O)cc2)oc2cc(O)cc(O)c12` [APIGENIN], in that order: more than 70% and 308 nM.
Turning to `COc1cc(O)c2c(=O)cc(-c3ccc(O)cc3)oc2c1` [GENKWANIN], the IC50 in test [4] was more than 10 µM; in test [15], more than 10 µM; in [16], 979 nM. In addition, the inhibition in test [13] is more than 70%.
As to `O=c1cc(-c2ccccc2)oc2cc(O)ccc12`, the inhibition in [13] is more than 50%.
As to `COc1c(O)cc2oc(-c3ccc(O)cc3)cc(=O)c2c1O` [HISPIDULIN], the result in test [3], in test [21], in test [5] and in [24] was Active. The inhibition in test [22] was 100%; in test [6], “Dose-dependent effect”; in test [13], 93%; in test [23], 100%; in test [17], more than 70%; in test [20], “Dose-dependent effect”. The IC50 in [4] was determined as 8.2 µM; in test [9], 1200 nM; in [15], 6.4 µM; in [16], 252 nM. The Activity entry in test [7], in [14], in [18] and in test [19] was “Dose-dependent effect” throughout.
Turning to `COc1ccc(-c2cc(=O)c3c(O)cc(O)cc3o2)cc1`, in test [13], the inhibition is more than 50%.
Turning to `O=c1c(O)c(-c2ccncc2)oc2ccc(Cl)cc12`, the inhibition in test [13] was more than 70%. In test [16], the IC50 amounted to 6490 nM.
`COc1ccc(-c2cc(=O)c3ccc(O)cc3o2)cc1OC`: the inhibition in test [13] is more than 50%.
As to `COc1cc2c(c(OC)c1CC=C(C)C)C(=O)CC(c1ccc(OC)c(OC)c1C/C=C(\C)CCC=C(C)C)O2` (centres undefined), the inhibition in test [13] was more than 70%. The half-inhibitory concentration (IC50) in test [16] was 8260 nM.
With `COc1ccc(-c2oc3cc(OC)c(OC)c(O)c3c(=O)c2O)cc1O`, the inhibition in [13] is more than 70%. Also, in [16], the IC50 was 1700 nM.
